Laboratory results from BindingDB's records for doi:10.1007/bf00168557 (Boehringer Ingelheim Italia, 1995).
Where “and” joins values, the source holds several entries; their conditions need not be identical. Identical values can stand only once.

Experiments:
[1] = target: T1, 5-hydroxytryptamine receptor 3A (Rattus norvegicus, UniProt P35563)
T1 sequence (P35563 whole entry): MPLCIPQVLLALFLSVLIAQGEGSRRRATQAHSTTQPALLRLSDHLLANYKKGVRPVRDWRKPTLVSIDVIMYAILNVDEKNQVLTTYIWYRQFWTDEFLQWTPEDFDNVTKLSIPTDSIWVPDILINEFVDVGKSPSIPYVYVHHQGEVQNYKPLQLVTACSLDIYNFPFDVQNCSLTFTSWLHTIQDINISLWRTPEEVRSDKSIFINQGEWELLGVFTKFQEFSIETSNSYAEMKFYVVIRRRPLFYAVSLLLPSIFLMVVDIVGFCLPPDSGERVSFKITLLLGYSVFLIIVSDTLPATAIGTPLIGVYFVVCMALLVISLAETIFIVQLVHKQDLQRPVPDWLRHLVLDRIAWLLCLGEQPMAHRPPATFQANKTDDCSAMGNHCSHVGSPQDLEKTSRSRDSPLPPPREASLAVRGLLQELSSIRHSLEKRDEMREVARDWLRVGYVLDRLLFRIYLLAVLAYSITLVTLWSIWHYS

[2] = target: 5-hydroxytryptamine receptor 4 (Rattus norvegicus, UniProt Q62758)
5-hydroxytryptamine receptor 4, sequence (Q62758 whole entry): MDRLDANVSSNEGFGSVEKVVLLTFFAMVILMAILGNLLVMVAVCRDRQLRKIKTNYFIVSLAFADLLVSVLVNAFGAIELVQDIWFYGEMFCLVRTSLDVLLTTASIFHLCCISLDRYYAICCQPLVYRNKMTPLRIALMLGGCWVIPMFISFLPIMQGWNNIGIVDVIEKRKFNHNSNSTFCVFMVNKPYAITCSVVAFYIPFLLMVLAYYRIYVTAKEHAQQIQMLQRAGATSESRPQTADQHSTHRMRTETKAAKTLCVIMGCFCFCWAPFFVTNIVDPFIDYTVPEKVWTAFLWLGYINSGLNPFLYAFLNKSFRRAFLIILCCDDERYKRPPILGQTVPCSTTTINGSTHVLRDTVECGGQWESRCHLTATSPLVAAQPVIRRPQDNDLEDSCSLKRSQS

[3] = target: 5-hydroxytryptamine receptor 1D (Rattus norvegicus, UniProt P28565)
5-hydroxytryptamine receptor 1D, sequence (P28565 whole entry): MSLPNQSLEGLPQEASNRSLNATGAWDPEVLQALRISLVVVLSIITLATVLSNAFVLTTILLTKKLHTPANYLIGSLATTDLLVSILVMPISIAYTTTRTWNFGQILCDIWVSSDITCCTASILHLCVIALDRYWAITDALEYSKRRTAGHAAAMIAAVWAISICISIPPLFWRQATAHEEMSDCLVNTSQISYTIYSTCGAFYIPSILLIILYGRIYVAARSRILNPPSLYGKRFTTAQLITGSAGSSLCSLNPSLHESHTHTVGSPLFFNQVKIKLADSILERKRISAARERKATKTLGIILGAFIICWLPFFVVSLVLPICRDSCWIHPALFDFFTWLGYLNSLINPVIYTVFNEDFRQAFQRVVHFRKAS

[4] = target: T2, 5-hydroxytryptamine receptor 2C (Rattus norvegicus, UniProt P08909)
T2 sequence (P08909 whole entry): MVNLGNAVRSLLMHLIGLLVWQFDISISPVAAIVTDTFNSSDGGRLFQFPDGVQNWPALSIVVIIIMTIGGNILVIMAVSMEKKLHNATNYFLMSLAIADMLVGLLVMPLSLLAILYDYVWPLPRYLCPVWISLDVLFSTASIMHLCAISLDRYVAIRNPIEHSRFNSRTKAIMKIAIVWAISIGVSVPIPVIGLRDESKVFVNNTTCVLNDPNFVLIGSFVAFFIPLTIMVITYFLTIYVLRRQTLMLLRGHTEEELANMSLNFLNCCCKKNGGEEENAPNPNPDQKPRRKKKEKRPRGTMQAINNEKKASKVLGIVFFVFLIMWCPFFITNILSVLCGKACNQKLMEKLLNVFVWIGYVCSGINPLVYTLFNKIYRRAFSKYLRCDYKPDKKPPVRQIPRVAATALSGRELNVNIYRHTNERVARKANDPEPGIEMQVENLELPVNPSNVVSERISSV

[5] = target: 5-hydroxytryptamine receptor 1B (Rattus norvegicus, UniProt P28564)
5-hydroxytryptamine receptor 1B, sequence (P28564 whole entry): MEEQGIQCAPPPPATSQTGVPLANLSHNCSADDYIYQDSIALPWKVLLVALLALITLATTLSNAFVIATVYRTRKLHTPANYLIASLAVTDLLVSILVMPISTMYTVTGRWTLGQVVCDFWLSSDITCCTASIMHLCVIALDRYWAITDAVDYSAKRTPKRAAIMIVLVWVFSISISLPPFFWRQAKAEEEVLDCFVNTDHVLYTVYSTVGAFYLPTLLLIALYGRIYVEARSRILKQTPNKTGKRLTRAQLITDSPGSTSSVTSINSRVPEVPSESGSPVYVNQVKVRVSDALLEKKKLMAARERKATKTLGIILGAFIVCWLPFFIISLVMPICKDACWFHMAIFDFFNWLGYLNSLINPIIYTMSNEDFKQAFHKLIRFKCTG

[6] = target: T3, 5-hydroxytryptamine receptor 1A (Rattus norvegicus, UniProt P19327)
T3 sequence (P19327 whole entry): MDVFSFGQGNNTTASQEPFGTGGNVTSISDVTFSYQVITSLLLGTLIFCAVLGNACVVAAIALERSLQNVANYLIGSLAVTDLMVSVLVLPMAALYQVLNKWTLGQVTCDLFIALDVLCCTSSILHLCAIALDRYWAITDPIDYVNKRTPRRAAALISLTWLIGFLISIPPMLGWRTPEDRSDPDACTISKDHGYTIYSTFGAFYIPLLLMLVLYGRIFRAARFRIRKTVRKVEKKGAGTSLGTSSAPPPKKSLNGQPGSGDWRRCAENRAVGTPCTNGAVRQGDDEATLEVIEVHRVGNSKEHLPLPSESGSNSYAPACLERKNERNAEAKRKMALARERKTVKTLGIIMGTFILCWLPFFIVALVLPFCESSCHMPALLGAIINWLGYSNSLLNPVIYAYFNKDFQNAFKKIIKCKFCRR

[7] = target: T4, Alpha-1A adrenergic receptor (Rattus norvegicus, UniProt P43140)
T4 sequence (P43140 whole entry): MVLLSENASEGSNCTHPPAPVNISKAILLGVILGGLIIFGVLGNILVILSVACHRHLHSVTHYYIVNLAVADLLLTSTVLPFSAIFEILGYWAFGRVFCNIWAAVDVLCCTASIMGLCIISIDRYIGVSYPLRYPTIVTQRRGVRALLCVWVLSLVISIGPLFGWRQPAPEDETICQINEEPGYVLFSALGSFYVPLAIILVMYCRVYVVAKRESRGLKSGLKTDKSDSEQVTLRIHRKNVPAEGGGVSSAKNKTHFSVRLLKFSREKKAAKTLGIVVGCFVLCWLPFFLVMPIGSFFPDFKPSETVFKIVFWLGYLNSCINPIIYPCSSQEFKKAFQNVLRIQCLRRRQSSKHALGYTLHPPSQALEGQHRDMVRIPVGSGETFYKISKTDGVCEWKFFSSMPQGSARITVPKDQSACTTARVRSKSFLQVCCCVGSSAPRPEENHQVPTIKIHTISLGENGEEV

Question: With `CCCN(CCC)C1CCc2cccc(O)c2C1` (centres undefined) as the compound, how does the Ki [1] read?
Answer: > 10000 nM

Question: What about the Ki [2] of the same compound?
Answer: > 10000 nM

Question: Which Ki [2] does the source give for `CCn1c(=O)n(C(=O)NC2CC3CCC(C2)N3C)c2ccccc21` (centres undefined) [BIMU 1] here?
Answer: 0.19 nM

Question: How did the Ki [1] turn out when `O=C1CC2(CCCC2)CC(=O)N1CCCCN1CCN(c2ncccn2)CC1` [BUSPAR] was run?
Answer: > 10000 nM

Question: What about the Ki [2] of the same compound?
Answer: > 10000 nM

Question: What about the Ki [3] of the same compound?
Answer: > 10000 nM

Question: For `O=c1[nH]c2ccccc2n1CCN1CCN(c2ccc(C(F)(F)F)cc2)CC1` [CAS_127941], which Ki [4] is on record?
Answer: 3980 nM

Question: What about the Ki [1] of the same compound?
Answer: > 10000 nM

Question: What about the Ki [5] of the same compound?
Answer: 2090 nM

Question: What about the Ki [6] of the same compound?
Answer: 47.9 nM and 19.1 nM

Question: And the Ki [2]?
Answer: > 10000 nM

Question: And the Ki [3]?
Answer: 2510 nM

Question: Which Ki [1] does the source give for `CN1C2CCC1CC(OC(=O)c1cc(Cl)cc(Cl)c1)C2` (centres undefined) [MDL 72222] here?
Answer: 0.8 nM

Question: With `COc1cccc(OC)c1OCCNCC1Oc2ccccc2OC1c1ccccc1` (centres undefined) [NSC_185453] as the compound, how does the Ki [7] read?
Answer: 0.3 nM
